Source: ChEMBL document CHEMBL4665644, “L-DOPA-quinone Mediated Recovery from GIRK Channel Firing Inhibition in Dopaminergic Neurons” (ACS Med Chem Lett, 2019)

Experiments:
[1] = target: T1, G protein-activated inward rectifier potassium channel 2 (Mus musculus) (UniProt P48542); assay: Stabilization of GIRK2 channel in C57BL6 mouse brain DAergic neurons assessed as recovery of D2 receptor stimulation-mediated firing inhibition in presence of 100 nM quinpirole under continuous perfusion followed by treated at 300 uM measured after 15 mins by multi-electrode array (reference value: 4.07 +-/ 3.6%); assay type: tissue-based; set-up: scale not given: the % may be the effect or the level left
T1 sequence (whole entry): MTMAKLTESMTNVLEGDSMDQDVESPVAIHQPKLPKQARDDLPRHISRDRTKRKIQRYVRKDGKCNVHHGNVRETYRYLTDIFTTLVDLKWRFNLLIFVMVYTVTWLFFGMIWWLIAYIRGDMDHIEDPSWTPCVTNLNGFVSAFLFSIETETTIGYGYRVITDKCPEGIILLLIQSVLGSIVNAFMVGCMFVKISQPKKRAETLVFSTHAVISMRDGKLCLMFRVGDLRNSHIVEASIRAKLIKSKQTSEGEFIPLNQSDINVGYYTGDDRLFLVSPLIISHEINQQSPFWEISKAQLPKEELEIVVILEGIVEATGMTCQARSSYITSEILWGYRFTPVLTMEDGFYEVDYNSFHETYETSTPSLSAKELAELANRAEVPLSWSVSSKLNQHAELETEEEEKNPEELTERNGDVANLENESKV

[2] = target: T1, G protein-activated inward rectifier potassium channel 2 (Mus musculus); assay: Stabilization of GIRK2 channel in C57BL6 mouse brain DAergic neurons assessed as recovery of GABAB receptor stimulation-mediated firing inhibition treated with 100 uM dopamine and 10 uM sulpiride D2 antagonist under continuous perfusion followed by 300 nM baclofen treated at 300 uM measured after 15 mins by multi-electrode array (reference value: 24.94 +-/ 14.46%); assay type: tissue-based; set-up: scale not given: the % may be the effect or the level left

## N[C@@H](CC1=CC(=O)C(=O)C=C1)C(=O)O
[1]
  Activity: 81.8%
[2]
  Activity: 73.6%
